Drawing on patent publication US11492351B2, “MTA-cooperative PRMT5 inhibitors” (Mirati Therapeutics, Inc., priority 2019, dated 2022), this text covers IC50 for four molecules.

Each structure is given as a SMILES string.

For test [1], the target named is T1, PRMT5/MEP50 complex (Homo sapiens (Human), UniProt O14744). The test can be described thus: PRMT5:MEP50 HotSpot Assay (full-length histone H2A, plus and minus MTA). Type of test: biochemical. On the procedure:
(§1) The PRMT5 inhibitory activity of compounds of the present invention was determined using either a PRMT5:MEP50 FlashPlate Assay (Reaction Biology Corporation) or a PRMT5:MEP50 HotSpot Assay (Reaction Biology Corporation).
The assay uses recombinant full-length histone H2A as the PRMT5 substrate. […] The reaction was stopped and transferred to filter paper for detection. The amount of tritiated H2A in each sample was determined using a scintillation counter.

The target in test [2] is T1, PRMT5/MEP50 complex. Kind of test: PRMT5:MEP50 FlashPlate Assay (histone H4 peptide, plus and minus MTA). Type of test: biochemical. On the procedure:
as §1
1. PRMT5:MEP50 FlashPlate Assay

Where [3] appears, read: in the absence of MTA, read-out: IC50.
The mark [4] stands for this setting: read-out: IC50 + 2 μM MTA, in the presence of 2 μM MTA.

T1 sequence (O14744 whole entry): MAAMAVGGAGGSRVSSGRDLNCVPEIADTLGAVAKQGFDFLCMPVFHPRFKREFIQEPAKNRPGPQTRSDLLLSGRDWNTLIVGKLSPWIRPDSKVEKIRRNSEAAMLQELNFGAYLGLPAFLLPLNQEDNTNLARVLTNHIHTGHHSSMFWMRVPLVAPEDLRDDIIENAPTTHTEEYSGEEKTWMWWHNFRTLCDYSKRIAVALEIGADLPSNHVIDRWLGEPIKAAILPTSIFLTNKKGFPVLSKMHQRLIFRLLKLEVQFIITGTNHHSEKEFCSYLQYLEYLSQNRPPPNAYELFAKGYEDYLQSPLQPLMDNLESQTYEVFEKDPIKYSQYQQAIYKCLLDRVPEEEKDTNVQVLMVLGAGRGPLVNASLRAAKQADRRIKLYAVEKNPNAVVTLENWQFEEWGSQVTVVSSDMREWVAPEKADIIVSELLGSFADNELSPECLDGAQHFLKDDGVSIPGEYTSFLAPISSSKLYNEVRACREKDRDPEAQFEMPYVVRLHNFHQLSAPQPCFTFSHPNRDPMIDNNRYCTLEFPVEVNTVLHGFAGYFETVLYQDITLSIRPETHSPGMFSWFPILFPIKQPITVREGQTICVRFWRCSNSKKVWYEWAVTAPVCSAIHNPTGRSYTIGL
T1 sequence (Q9BQA1 whole entry partner): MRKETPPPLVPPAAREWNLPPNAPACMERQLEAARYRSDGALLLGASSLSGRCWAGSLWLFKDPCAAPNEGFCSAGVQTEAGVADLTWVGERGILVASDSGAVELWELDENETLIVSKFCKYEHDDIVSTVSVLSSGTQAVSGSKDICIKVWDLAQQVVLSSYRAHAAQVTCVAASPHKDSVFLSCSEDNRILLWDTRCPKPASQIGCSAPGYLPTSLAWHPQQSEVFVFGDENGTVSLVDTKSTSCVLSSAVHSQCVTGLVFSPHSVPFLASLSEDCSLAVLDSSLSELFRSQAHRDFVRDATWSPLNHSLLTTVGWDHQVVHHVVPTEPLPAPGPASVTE

In the case of `Cn1ncc(-c2ccc3c(=O)[nH]nc(CN)c3c2)c1-c1ccccc1C#N` [Example 4-100, 2-(4-(4-(aminomethyl)-1-oxo-1,2-dihydrophthalazin-6-yl)-1-methyl-1H-pyrazol-5-yl)benzonitrile], in test [1] (setting [3]), the IC50 was > 10 µM.

On to `Cn1ncc(-c2ccc3c(=O)[nH]nc([C@H](N)C(F)F)c3c2)c1-c1ccc2ccccc2c1C#N` [Example 9-6, 2-[4-[4-[(1S)-1-amino-2,2-difluoro-ethyl]-1-oxo-2H-phthalazin-6-yl]-2-methyl-pyrazol-3-yl]naphthalene-1-carbonitrile], for which, in test [1] (setting [4]), the IC50 is > 10 µM.

Regarding `Cc1cc2c(=O)[nH]nc(CN)c2cc1-c1cncc(C#N)c1` [Example 3-38], the 50% inhibitory concentration (IC50) was 4.94 µM in test [2] (setting [3]) and 0.37 µM in test [2] (setting [4]).

Turning to `Cc1nc2cncc(-c3ccc4c(=O)[nH]nc(CN)c4c3)c2o1` [Example 4-110, 4-(aminomethyl)-6-(2-methyloxazolo[4,5-c]pyridin-7-yl)phthalazin-1(2H)-one], the IC50 in test [2] (setting [3]) is > 100 µM.

Broadly, the IC50 is the concentration needed to halve the response being measured.
